This is an account of results in article PMC11253567, “Drug repurposing of pyrazolotriazine derivatives as potential anti-SARS-CoV-2 agents: in vitro and in silico studies” (BMC Chemistry, 2024).

Series [1] has as its system SARS-CoV-2 (hCoV-19/Egypt/NRC-03/2020). The settings on record: cited from earlier work.
The nature of series [2]: in vitro. The settings on record: African green monkey.
The subject of series [3] is SARS-CoV-2 (hCoV-19/Egypt/NRC-03/2020). Kind of series: Inhibitory concentration 50 (IC50) determination, crystal violet CPE assay in VERO-E6 cells. The settings on record: for IC50: 50% reduction of virus-induced CPE.
In series [4] the test system is VERO-E6 cells. The note with it: African green monkey.
For series [5], the system named is VERO-E6 cells. The settings on record: cited from earlier work.
Setting [6] is: standard reference drug, SARS-CoV-2.
[7] abbreviates: Severe acute respiratory syndrome coronavirus 2, Vero C1008, SARS-CoV-2 in VERO-E6 cells.

Values joined by “and” are separate entries in the source; they are usually repeats but may differ in a detail not shown here. Equal values may be shown once. Read-outs that look alike come from different tables or passages of the source.

As a reminder, the IC50 is the point on the concentration scale where inhibition reaches its midpoint.

Consider `CCN(CC)CCCC(C)Nc1ccnc2cc(Cl)ccc12` (stereo not drawn) [Chloroquine], for which the 50% inhibitory concentration (IC50) in series [1] (setting [6]) was 24.9 µM.
In turn, `CCOC(=O)c1cnn2c(-c3ccccc3)nc(NCc3ccccc3)nc12` [Compound 1] gave a CC50 in series [2] of 463 µM. Moreover, the results for the 50% inhibitory concentration (IC50) in series [3] (SARS-CoV-2 in VERO-E6 cells) and in series [3] (setting [7]) were 2.4 µM and 2.45 µM, respectively. Besides, the “SI (CC50/IC50)” value in series [3] is 190 and 192.8.
For `CCOC(=O)c1cnn2c(-c3ccc(Br)cc3)nc(NCc3ccccc3)nc12` [Compound 2], in series [2], the CC50 is 445 µM. In addition, the IC50 in series [3] (SARS-CoV-2 in VERO-E6 cells) and in series [3] (setting [7]) was 11.2 µM in each case. Further, in series [3], the “SI (CC50/IC50)” value turned out to be 39.7.
On to `CCOC(=O)c1cnn2c(-c3ccc(Cl)cc3)nc(NCc3ccccc3)nc12` [Compound 3], for which the results for the CC50 in series [4] and in series [2] were 88 µM and 88.1 µM, respectively. For the same compound, the IC50 in series [3] (SARS-CoV-2 in VERO-E6 cells) and in series [3] (setting [7]) was 17.8 µM each time. Further, the “SI (CC50/IC50)” value in series [3] is given as 4.9.
Compound `CCOC(=O)c1cnn2c(-c3ccccc3)nc(N3CCCCC3)nc12` [Compound 4] gave a CC50 in series [2] of 366 µM. For the same compound, the 50% inhibitory concentration (IC50) was determined as 61.8 µM in series [3] (SARS-CoV-2 in VERO-E6 cells) and 61.9 µM in series [3] (setting [7]). Besides, in series [3], the “SI (CC50/IC50)” value is on record as 5.9.
Consider `CCOC(=O)c1cnn2c(-c3ccc(Cl)cc3)nc(N3CCCCC3)nc12` [Compound 5], for which the CC50 in series [2] turned out to be 87.5 µM. In addition, the “SI (CC50/IC50)” value in series [3] is reported as 31.2. This compound also yielded a half-inhibitory concentration (IC50) in series [3] (setting [7]) of 2.8 µM.
In the case of `CCOC(=O)c1cnn2c(-c3ccccc3)nc(NCCc3ccccc3)nc12` [Compound 6], the “SI (CC50/IC50)” value in series [3] was determined as 2.5.
As to `CCOC(=O)c1cnn2c(-c3ccc(Br)cc3)nc(N3CCCC3)nc12` [Compound 7], the CC50 in series [2] stood at 279 µM. The “SI (CC50/IC50)” value in series [3] turned out to be 10.6. In series [3] (setting [7]), this compound had an IC50 of 26.1 µM.
On to `O=C(NCc1ccccc1)c1cnn2c(-c3ccccc3)nc(NCc3ccccc3)nc12` [Compound 8], for which the CC50 in series [2] turned out to be 400 µM. Moreover, the IC50 was 55 µM in series [3] (SARS-CoV-2 in VERO-E6 cells) and 55.1 µM in series [3] (setting [7]). In addition, the “SI (CC50/IC50)” value in series [3] is recorded as 7.2.
As for `O=C(NCCc1ccccc1)c1cnn2c(-c3ccccc3)nc(NCCc3ccccc3)nc12` [Compound 9], the CC50 in series [2] was 578 µM. Moreover, the IC50 in series [3] (SARS-CoV-2 in VERO-E6 cells) and in series [3] (setting [7]) was 44.2 µM each time. Also, the “SI (CC50/IC50)” value in series [3] is recorded as 13.0.
Take `O=C(NCCc1ccccc1)c1cnn2c(-c3ccc(Cl)cc3)nc(NCCc3ccccc3)nc12` [Compound 10]: in series [2], the CC50 came to 343 µM. Also, the 50% inhibitory concentration (IC50) in series [3] (SARS-CoV-2 in VERO-E6 cells) amounted to 60.7 µM; in series [3] (setting [7]), 60.8 µM. The “SI (CC50/IC50)” value in series [3] is reported as 5.6.
As to `NC(=O)c1nc(F)c[nH]c1=O` [Favipiravir], the half-maximal inhibitory concentration (IC50) in series [1] (setting [6]) is 1380 µM. Further, the “SI (CC50/IC50)” value in series [1] (standard reference drug) is listed as 3.8. The CC50 in series [5] was 5260 µM.
On to `CCN(CCO)CCCC(C)Nc1ccnc2cc(Cl)ccc12` (stereo not drawn) [Hydroxy-chloroquine, Hydroxychloroquine], for which the IC50 in series [1] (setting [6]) is 36.9 µM. Also, the “SI (CC50/IC50)” value in series [1] (standard reference drug) is recorded as 9.7. Besides, the CC50 in series [5] (standard reference drug) was 356 µM.
Consider `CCC(CC)COC(=O)[C@H](C)N[P@](=O)(OC[C@H]1O[C@@](C#N)(c2ccc3c(N)ncnn23)[C@H](O)[C@@H]1O)Oc1ccccc1` [Remdesivir], for which the 50% inhibitory concentration (IC50) in series [1] (reference drug) was 3.38 µM. Further, in series [5] (reference drug), the CC50 is 58.1 µM.
